# In PubChem BioAssay (NCI):
#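 Values below derive from 48-hour exposures of cells grown in 96-well plates, with endpoints linearly interpolated between the two concentrations bracketing the appropriate inhibition level. TGI denotes the concentration required for complete inhibition of growth.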
# Tests used:
# Test in all cases: DTP human tumour cell line panel, 48 h
# [1] = system: SK-OV-3 ovarian
# [2] = system: NCI-H460 lung
# [3] = system: DLD-1 colon
# [4] = system: SF-268 CNS
# [5] = system: TK-10 renal
# [6] = system: RXF 393 renal
# [7] = system: ACHN renal
# [8] = system: EKVX NSCLC
# [9] = system: SF-539 CNS
# [10] = system: DMS 273 small cell lung
# [11] = system: SK-MEL-28 melanoma
# [12] = system: SN12C renal
# [13] = system: OVCAR-8 ovarian
# [14] = system: CCRF-CEM leukemia
# [15] = system: KM12 colon
# [16] = system: SNB-19 CNS
# [17] = system: COLO 205 colon
# [18] = system: RPMI-8226 leukemia
# [19] = system: U251 CNS
# [20] = system: SW-620 colon
# [21] = system: K-562 leukemia
# [22] = system: SNB-75 CNS
# [23] = system: MALME-3M melanoma
# [24] = system: DMS 114 small cell lung
# [25] = system: IGROV1 ovarian
# [26] = system: OVCAR-5 ovarian
# [27] = system: OVCAR-3 ovarian
# [28] = system: MOLT-4 leukemia
# [29] = system: HOP-92 NSCLC
# [30] = system: HL-60(TB) leukemia
# [31] = system: M19-MEL melanoma
# [32] = system: HCT-15 colon
# [33] = system: UACC-62 melanoma
# [34] = system: HOP-62 NSCLC
# [35] = system: 786-0 renal
# [36] = system: CAKI-1 renal
# [37] = system: HCC-2998 colon
# [38] = system: LOX IMVI melanoma
# [39] = system: A498 renal
# [40] = system: SK-MEL-5 melanoma
# [41] = system: UO-31 renal
# [42] = system: HOP-18 NSCLC
# [43] = system: NCI-H522 lung
# [44] = system: NCI-H23 lung
# [45] = system: RXF-631 renal
# [46] = system: SNB-78 CNS
# [47] = system: KM20L2 colon
# [48] = system: A549 NSCLC
# [49] = system: SK-MEL-2 melanoma
# [50] = system: SF-295 CNS
# [51] = system: LXFL 529 NSCLC
# [52] = system: UACC-257 melanoma
# [53] = system: M14 melanoma
# [54] = system: HT29 colon
# [55] = system: NCI-H226 lung
# [56] = system: SR leukemia
# [57] = system: HCT-116 colon
# [58] = system: OVCAR-4 ovarian
smiles,measurement,setting,value
COc1ccc(/C=C/C(=O)c2sc(Nc3ccc([N+](=O)[O-])cc3)nc2C)cc1,TGI,[1],> 100 µM
same,TGI,[2],> 100 µM
same,TGI,[3],> 100 µM
same,TGI,[4],> 100 µM
same,TGI,[5],> 100 µM
same,TGI,[6],87.9 µM
same,TGI,[7],> 100 µM
same,TGI,[8],> 100 µM
same,TGI,[9],> 100 µM
same,TGI,[10],> 100 µM
same,TGI,[11],> 100 µM
same,TGI,[12],> 100 µM
same,TGI,[13],> 100 µM
same,TGI,[14],82 µM
same,TGI,[15],> 100 µM
same,TGI,[16],> 100 µM
same,TGI,[17],> 100 µM
same,TGI,[18],47.9 µM
same,TGI,[19],> 100 µM
same,TGI,[20],> 100 µM
same,TGI,[21],93.6 µM
same,TGI,[22],> 100 µM
same,TGI,[23],> 100 µM
same,TGI,[24],> 100 µM
same,TGI,[25],> 100 µM
same,TGI,[26],> 100 µM
same,TGI,[27],89.4 µM
same,TGI,[28],50.7 µM
same,TGI,[29],81.5 µM
same,TGI,[30],67.6 µM
same,TGI,[31],> 100 µM
same,TGI,[32],> 100 µM
same,TGI,[33],> 100 µM
same,TGI,[34],> 100 µM
same,TGI,[35],> 100 µM
same,TGI,[36],> 100 µM
same,TGI,[37],83.5 µM
same,TGI,[38],> 100 µM
same,TGI,[39],> 100 µM
same,TGI,[40],46.8 µM
same,TGI,[41],91.9 µM
same,TGI,[42],> 100 µM
same,TGI,[43],51.1 µM
same,TGI,[44],85 µM
same,TGI,[45],> 100 µM
same,TGI,[46],> 100 µM
same,TGI,[47],> 100 µM
same,TGI,[48],> 100 µM
same,TGI,[49],48.6 µM
same,TGI,[50],81.5 µM
Nc1nc2c3c(ncn3CC(O)CO2)n1 (stereo unspecified),TGI,[1],> 100 µM
same,TGI,[2],> 100 µM
same,TGI,[3],> 100 µM
same,TGI,[4],> 100 µM
same,TGI,[5],> 100 µM
same,TGI,[6],> 100 µM
same,TGI,[7],> 100 µM
same,TGI,[51],> 100 µM
same,TGI,[9],> 100 µM
same,TGI,[10],> 100 µM
same,TGI,[11],> 100 µM
same,TGI,[12],> 100 µM
same,TGI,[13],> 100 µM
same,TGI,[14],> 100 µM
same,TGI,[52],> 100 µM
same,TGI,[15],> 100 µM
same,TGI,[53],> 100 µM
same,TGI,[54],28.6 µM
same,TGI,[16],> 100 µM
same,TGI,[17],> 100 µM
same,TGI,[18],> 100 µM
same,TGI,[55],> 100 µM
same,TGI,[19],> 100 µM
same,TGI,[20],> 100 µM
same,TGI,[21],> 100 µM
same,TGI,[22],29 µM
same,TGI,[23],> 100 µM
same,TGI,[24],> 100 µM
same,TGI,[25],> 100 µM
same,TGI,[26],> 100 µM
same,TGI,[27],> 100 µM
same,TGI,[56],> 100 µM
same,TGI,[28],> 100 µM
same,TGI,[29],> 100 µM
same,TGI,[30],> 100 µM
same,TGI,[31],19.4 µM
same,TGI,[32],> 100 µM
same,TGI,[33],> 100 µM
same,TGI,[34],> 100 µM
same,TGI,[35],> 100 µM
same,TGI,[57],> 100 µM
same,TGI,[36],> 100 µM
same,TGI,[37],> 100 µM
same,TGI,[38],> 100 µM
same,TGI,[39],> 100 µM
same,TGI,[40],> 100 µM
same,TGI,[41],> 100 µM
same,TGI,[42],> 100 µM
same,TGI,[43],> 100 µM
same,TGI,[44],> 100 µM
same,TGI,[45],> 100 µM
same,TGI,[46],> 100 µM
same,TGI,[47],> 100 µM
same,TGI,[48],> 100 µM
same,TGI,[49],> 100 µM
same,TGI,[50],> 100 µM
same,TGI,[58],> 100 µM
CN(C)C(=S)/N=c1\ssc(=Nc2ccccc2)n1C,TGI,[1],> 100 µM
same,TGI,[2],> 100 µM
same,TGI,[3],> 100 µM
same,TGI,[4],> 100 µM
same,TGI,[5],> 100 µM
same,TGI,[6],> 100 µM
same,TGI,[7],> 100 µM
same,TGI,[51],> 100 µM
same,TGI,[8],> 100 µM
same,TGI,[9],> 100 µM
same,TGI,[10],> 100 µM
same,TGI,[11],> 100 µM
same,TGI,[12],> 100 µM
same,TGI,[13],> 100 µM
same,TGI,[14],> 100 µM
same,TGI,[52],> 100 µM
same,TGI,[15],> 100 µM
same,TGI,[53],> 100 µM
same,TGI,[54],> 100 µM
same,TGI,[16],> 100 µM
same,TGI,[18],> 100 µM
same,TGI,[55],> 100 µM
same,TGI,[19],> 100 µM
same,TGI,[20],> 100 µM
same,TGI,[21],> 100 µM
same,TGI,[22],44.7 µM
same,TGI,[23],> 100 µM
same,TGI,[24],> 100 µM
same,TGI,[25],> 100 µM
same,TGI,[26],> 100 µM
same,TGI,[56],> 100 µM
same,TGI,[28],> 100 µM
same,TGI,[29],> 100 µM
same,TGI,[30],> 100 µM
same,TGI,[31],> 100 µM
same,TGI,[32],> 100 µM
same,TGI,[33],> 100 µM
same,TGI,[34],> 100 µM
same,TGI,[35],> 100 µM
same,TGI,[57],> 100 µM
same,TGI,[36],> 100 µM
same,TGI,[37],> 100 µM
same,TGI,[38],> 100 µM
same,TGI,[39],> 100 µM
same,TGI,[41],> 100 µM
same,TGI,[42],> 100 µM
same,TGI,[44],> 100 µM
same,TGI,[45],> 100 µM
same,TGI,[46],> 100 µM
same,TGI,[47],> 100 µM
same,TGI,[48],> 100 µM
same,TGI,[49],> 100 µM
same,TGI,[50],> 100 µM
same,TGI,[58],> 100 µM
